Experimental data taken from patent US9404142B2, “Screening methods for identifying Plasmodium proteases inhibitors” (Institut Pasteur, priority 2010, dated 2016).
Read-outs that look alike come from different tables or passages of the source.

What was measured:
[1] = molecular target: PvSUB1 Dabsyl Edans substrate (Plasmodium vivax)
[2] = system: P. falciparum (3D7 clone) segmented schizonts; test: Merozoite egress/invasion, flow cytometry (YOYO-1) on segmented schizonts; format: cell-based, Plasmodium falciparum; settings: 90 μM, 12 hr, serum-containing medium
Description: Next, the selected SUB1 inhibitors were evaluated biologically for their impact on P. falciparum 3D7 stage-specific ex vivo culture. […] In vitro synchronized culture of P. falciparum composed of 0.5% of segmented schizonts (To) was cultivated for 12 hr in serum-free medium in the absence (T12) or presence of DMSO (0.9% v/v) (lane DMSO). Lanes A/G1, A/G6, B/H5 correspond to parasites incubated with 90 μM of corresponding compounds. Lanes E64 and RBC correspond to parasites cultured in presence of E64 (10 μM) and uninfected erythrocytes respectively. Parasite extracts and culture supernatants were analyzed by western blot with mAb 24C6.1F1. […] Segmented schizonts (starting material, To) were cultivated for 12 hr in serum-containing medium and their transition to newly formed trophozoites-stages in presence of 0.9% DMSO (DMSO) was analysed by flow cytometry using YOYO1 Facs technique (Li et al, Cytometry, 71A, 297-307, 2007). […]
A synchronised culture composed of segmented schizonts of P. falciparum (3D7 clone) at 0.5% parasitemia and 1% hematocrit is performed in a 24 wells plate. […] The progress of the parasitaemia from segmented schizont to newly formed trophozoites was assessed by flow cytometry after staining samples by the DNA-binding fluorescent dye, YOYO-1™, as previously described by Li and colleagues [2007, Cytometry A 71: 297-307.] with some modifications. […]

recombinant PvSUB1 = recombinant PvSUB1 (Plasmodium vivax, UniProt E6Y8B9); test: FRET-based PvSUB1 enzymatic assay, Ki determination; format: biochemical; settings: Dabsyl Edans substrate; mean of at least three independent experiments ± SEM
Description: FIG. 2B depicts the FRET-based specific enzymatic assay which was used. In this particular case the assay consists in measuring fluorescence of tagged peptidic substrate of SUB1. An uncleaved peptide has low intensity emission whereas, when the peptide is cleaved by SUB1, high intensity emissions are measured. […] Molecules where thus tested and their Ki (inhibition constant) was determined on the PvSUB1 recombinant enzyme. FIG. 2C provides determination of the Ki of the AG6, AG1 and BH5 compounds for the recombinant PvSUB1 enzyme with the Dabsyl Edans substrate. Ten different concentrations, ranging from 300 μM to 585 nM following sequential 1:2 dilutions, of the compounds were tested using the PvSUB1 enzymatic assay. The final mixture was distributed in duplicate into a 384-well black microtiter plate (Thermo Scientific) and the fluorescence was monitored. The slope of the linear part of the kinetic was determined in an Excel™ (Microsoft) spreadsheet. The Ki and EC50 values expressed in μM were determined using GraphPad Prism™ software. […]
For the kinetic assays we used the recombinant PvSUB1/PfSUB1 enzymes and specific peptide substrates whose sequence are deduced from the auto-maturation site of each one: KLVGADDVSLA (SEQ ID NO: 9), which cleavage occurs between the two aspartates for PvSUB1 and KLVSADNIDIS (SEQ ID NO: 11) which is cleaved between the aspartate and the asparagine for PfSUB1. […] The final mixture was distributed in duplicate into a 384-well black microtiter plate (Thermo Scientific) and the fluorescence was monitored every 3 minutes for 90 min at 37° C. in a Labsystems Fluoroskan Ascent™ spectrofluorometer or a Tecan Infinite M1000™ spectrofluorometer using the excitation and emission wavelengths of […] or 620/680 nm for the Dabsyl/Edans or DYQ660/DY630 substrates respectively. The slope of the linear part of the kinetic was determined in an Excel™ (Microsoft) spreadsheet. Every steps of the enzymatic assay were done on ice to make sure that the protein was not active before the measure of the fluorescence. […]

P. falciparum Dd2 strain = test: In vitro drug susceptibility assay on P. falciparum culture, clone Dd2; format: cell-based; settings: Plasmodium falciparum, DD2, read-out: IC50 on P. falciparum Dd2 strain
P. falciparum 3D7 strain = test: In vitro drug susceptibility assay on P. falciparum culture, clone 3D7; format: cell-based; settings: Plasmodium falciparum
Description: FIG. 2B depicts the FRET-based specific enzymatic assay which was used. In this particular case the assay consists in measuring fluorescence of tagged peptidic substrate of SUB1. […] Molecules where thus tested and their Ki (inhibition constant) was determined on the PvSUB1 recombinant enzyme. FIG. 2C provides determination of the Ki of the AG6, AG1 and BH5 compounds for the recombinant PvSUB1 enzyme with the Dabsyl Edans substrate. […] The final mixture was distributed in duplicate into a 384-well black microtiter plate (Thermo Scientific) and the fluorescence was monitored. The slope of the linear part of the kinetic was determined in an Excel™ (Microsoft) spreadsheet. The Ki and EC50 values expressed in μM were determined using GraphPad Prism™ software.
Parasites were incubated at 37° C. in an atmosphere composed of 5% O2, 5% CO2 and 90% N2. […] IC50/EC50 have been determined following nonlinear regression analysis using HN-NonLin V1.1 software (malaria.farch.net).

SERA5 maturation by SUB1 = test: Inhibition of maturation of SERA5 (western blot) in synchronized P. falciparum culture; format: cell-based, Plasmodium falciparum; settings: compounds 90 μM, E64 10 μM; 12 hr, serum-free medium; western blot mAb 24C6.1F1
Description: Next, the selected SUB1 inhibitors were evaluated biologically for their impact on P. falciparum 3D7 stage-specific ex vivo culture. […] In vitro synchronized culture of P. falciparum composed of 0.5% of segmented schizonts (To) was cultivated for 12 hr in serum-free medium in the absence (T12) or presence of DMSO (0.9% v/v) (lane DMSO). Lanes A/G1, A/G6, B/H5 correspond to parasites incubated with 90 μM of corresponding compounds. Lanes E64 and RBC correspond to parasites cultured in presence of E64 (10 μM) and uninfected erythrocytes respectively. Parasite extracts and culture supernatants were analyzed by western blot with mAb 24C6.1F1. SERA5 126 kDa precursor and its processed forms of 73, 56 and 50 kDa are indicated. […] Segmented schizonts (starting material, To) were cultivated for 12 hr in serum-containing medium and their transition to newly formed trophozoites-stages in presence of 0.9% DMSO (DMSO) was analysed by flow cytometry using YOYO1 Facs technique (Li et al, Cytometry, 71A, 297-307, 2007). Gates were selected to exclude uninfected erythrocytes and converted to two-dimensional plots illustrating the consequence of the presence of tested compounds on the arrest of schizogony. All compounds were tested at 90 μM, except E64 tested at 10 μM.

[3] = molecular target: PfSUB1 Dabsyl Edans substrate (Plasmodium falciparum)
[4] = chloroquino-sensitive clone 3D7, mean ± SEM, read-out: IC50 on P. falciparum 3D7 strain

| Molecule | Ki (recombinant PvSUB1) [µM] | IC50 (P. falciparum Dd2 strain) | IC50 (P. falciparum 3D7 strain; [4]) [µM] | also measured |
| --- | --- | --- | --- | --- |
| recombinant enzymatically active form of Plasmodium vivax SUB1-Belem (PvSUB1-Belem) (enzyme) | – | – | – | apparent Km, FRET-based cleavage assay [1]: 19.7 µM |
| O=C(C[n+]1cccc(C(=O)Nc2ccccc2)c1)c1ccc(NC(=O)c2ccccc2)cc1 [A/G1] | 5.5 ± 2.4 | 3.5 ± 1.7 µM | 4.7 ± 1.8 | Arrest of schizogony / merozoite egress [2]: able to maintain the parasites to the schizonts stage |
| COc1cccc(C2c3c(-c4ccc(F)cc4)n[nH]c3C(=O)N2c2ccccc2)c1 (stereo not shown) [A/G6] | 8.2 ± 1.9 | 14.8 ± 6.7 µM | 17.7 ± 1.7 | Arrest of schizogony / merozoite egress [2]: able to maintain the parasites to the schizonts stage |
| CC(C)C[C@H](NC(=O)[C@H]1O[C@@H]1C(=O)O)C(=O)NCCCCN=C(N)N [Compound E64] | – | – | – | Maturation of SERA5 by SUB1 successive cleavages (SERA5 maturation by SUB1): inactive |
| CCN(CC)CCCC(C)Nc1ccnc2cc(Cl)ccc12 (stereo not shown) [chloroquine, reference compound] | – | 0.0355 ± 0.0137 µg/mL | – | IC50 (P. falciparum 3D7 strain; 3D7, read-out: IC50 on P. falciparum 3D7 strain): 0.0043 ± 0.0013 µg/mL |
| O=C(Cn1ncc2c3ccccc3n(Cc3cccc(Cl)c3)c2c1=O)N1CCc2ccccc21 [B/H5] | 1.4 ± 1 | 13 ± 8.1 µM | 16.9 ± 3.3 | – |
| recombinant Plasmodium falciparum SUB1 (PfSUB1) (enzyme) | – | – | – | apparent Km, FRET-based cleavage assay [3]: 30.2 µM |
